Patent US7795444B2, “Human protein tyrosine phosphatase inhibitors and methods of use” (Warner Chilcott Company, priority 2006, dated 2010)
Blank lines part the entries; values can stand above or below the compound they belong to.

Key:
HPTPβ = HPTPβ (Homo sapiens, UniProt P23467); test: HPTPβ inhibition, IC50 (Table A); format: biochemical
PTP1B = target: T1, PTP1B (Homo sapiens, UniProt P18031); test: PTP1B inhibition, IC50 (Table A); format: biochemical
T1 sequence (P18031 1-435): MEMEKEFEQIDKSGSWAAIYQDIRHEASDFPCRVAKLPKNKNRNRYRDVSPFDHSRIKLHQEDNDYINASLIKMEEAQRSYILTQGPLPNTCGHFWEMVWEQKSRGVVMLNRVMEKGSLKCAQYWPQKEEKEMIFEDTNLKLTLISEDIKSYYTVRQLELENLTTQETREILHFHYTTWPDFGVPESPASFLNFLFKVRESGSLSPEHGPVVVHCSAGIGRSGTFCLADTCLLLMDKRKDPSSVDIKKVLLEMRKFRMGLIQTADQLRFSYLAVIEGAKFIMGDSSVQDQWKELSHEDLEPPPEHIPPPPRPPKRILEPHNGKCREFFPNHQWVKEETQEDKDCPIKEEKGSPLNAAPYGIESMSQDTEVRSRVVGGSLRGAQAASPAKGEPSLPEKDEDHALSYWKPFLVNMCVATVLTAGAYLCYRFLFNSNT

HPTPβ, sequence (P23467 23-1997): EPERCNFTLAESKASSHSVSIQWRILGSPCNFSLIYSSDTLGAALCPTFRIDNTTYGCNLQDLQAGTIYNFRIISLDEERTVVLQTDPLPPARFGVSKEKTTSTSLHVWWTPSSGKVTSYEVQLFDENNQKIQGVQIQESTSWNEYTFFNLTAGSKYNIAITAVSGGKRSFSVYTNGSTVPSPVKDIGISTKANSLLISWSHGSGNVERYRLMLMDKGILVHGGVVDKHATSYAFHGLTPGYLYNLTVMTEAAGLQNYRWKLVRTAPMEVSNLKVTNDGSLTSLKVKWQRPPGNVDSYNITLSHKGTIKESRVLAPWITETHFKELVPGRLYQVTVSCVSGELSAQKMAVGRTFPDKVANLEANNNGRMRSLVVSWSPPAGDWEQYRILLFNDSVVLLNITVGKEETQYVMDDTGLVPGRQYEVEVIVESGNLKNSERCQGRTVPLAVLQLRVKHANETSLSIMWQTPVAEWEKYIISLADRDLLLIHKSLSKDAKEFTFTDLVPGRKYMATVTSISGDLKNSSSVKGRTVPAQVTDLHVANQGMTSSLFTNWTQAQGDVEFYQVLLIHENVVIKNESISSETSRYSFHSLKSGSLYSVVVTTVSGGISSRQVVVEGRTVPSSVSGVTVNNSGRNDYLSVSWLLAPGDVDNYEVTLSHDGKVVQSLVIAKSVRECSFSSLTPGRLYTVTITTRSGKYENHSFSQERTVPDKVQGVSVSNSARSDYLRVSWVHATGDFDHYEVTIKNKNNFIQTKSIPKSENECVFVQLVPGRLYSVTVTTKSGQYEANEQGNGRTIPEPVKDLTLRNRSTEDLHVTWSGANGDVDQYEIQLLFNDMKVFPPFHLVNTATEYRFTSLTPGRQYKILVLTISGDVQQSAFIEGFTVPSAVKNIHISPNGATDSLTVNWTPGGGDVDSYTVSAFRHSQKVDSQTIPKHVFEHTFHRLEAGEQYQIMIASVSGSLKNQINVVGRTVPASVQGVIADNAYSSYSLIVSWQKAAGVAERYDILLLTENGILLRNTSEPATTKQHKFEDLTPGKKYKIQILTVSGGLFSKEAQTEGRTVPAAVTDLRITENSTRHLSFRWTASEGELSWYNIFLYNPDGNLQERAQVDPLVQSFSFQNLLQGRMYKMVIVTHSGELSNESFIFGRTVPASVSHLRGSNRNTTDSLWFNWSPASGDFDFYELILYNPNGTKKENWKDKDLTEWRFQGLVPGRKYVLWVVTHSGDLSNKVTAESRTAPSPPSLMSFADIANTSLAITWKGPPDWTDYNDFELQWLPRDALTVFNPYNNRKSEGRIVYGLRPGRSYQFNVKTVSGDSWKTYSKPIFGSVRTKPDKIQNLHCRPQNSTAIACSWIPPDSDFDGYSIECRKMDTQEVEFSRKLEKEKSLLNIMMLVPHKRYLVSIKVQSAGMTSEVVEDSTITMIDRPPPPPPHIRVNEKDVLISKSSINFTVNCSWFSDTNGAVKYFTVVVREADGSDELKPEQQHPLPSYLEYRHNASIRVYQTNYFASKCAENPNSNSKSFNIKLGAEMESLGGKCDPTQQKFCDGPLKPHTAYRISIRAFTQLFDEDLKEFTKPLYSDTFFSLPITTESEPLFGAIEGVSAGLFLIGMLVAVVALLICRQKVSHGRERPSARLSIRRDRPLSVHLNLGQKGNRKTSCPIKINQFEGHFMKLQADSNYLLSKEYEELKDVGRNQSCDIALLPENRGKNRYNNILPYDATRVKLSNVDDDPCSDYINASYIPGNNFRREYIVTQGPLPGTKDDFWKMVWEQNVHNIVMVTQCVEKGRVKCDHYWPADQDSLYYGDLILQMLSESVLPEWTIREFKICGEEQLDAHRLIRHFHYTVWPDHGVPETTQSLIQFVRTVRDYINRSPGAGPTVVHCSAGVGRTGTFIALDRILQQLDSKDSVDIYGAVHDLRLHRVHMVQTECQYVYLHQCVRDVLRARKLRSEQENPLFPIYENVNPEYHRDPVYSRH

Compound: CCc1csc([C@H](Cc2ccc(NS(=O)(=O)O)cc2)NC(=O)c2ccc3c(c2)OCO3)n1 [(S)-4-[2-(Benzo[d][1,3]dioxole-5-carboxamido)-2-(4-ethylthiazol-2-yl)ethyl]phenylsulfamic acid]
IC50 (HPTPβ): 42 nM
IC50 (PTP1B): 19000 nM

Compound: (S)-4-(2-(4-Ethylthiazol-2-yl)-2-(2-(2-methoxyphenyl)acetamido)ethyl)phenyl-sulfamic acid
IC50 (HPTPβ): 14 nM
IC50 (PTP1B): 11700 nM

Compound: CCc1csc([C@H](Cc2ccc(NS(=O)(=O)O)cc2)NC(=O)Cc2cccc(F)c2)n1 [(S)-4-(2-(4-Ethylthiazol-2-yl)-2-(2-(3-fluorophenyl)acetamido)ethyl)phenyl-sulfamic acid]
IC50 (HPTPβ): 0.3 nM
IC50 (PTP1B): 2850 nM

Compound: CCc1csc([C@H](Cc2ccc(NS(=O)(=O)O)cc2)NC(=O)Cc2ccc(OC)c(OC)c2)n1 [(S)-4-(2-(2-(3,4-Dimethoxyphenyl)acetamido)-2-(4-ethylthiazol-2-yl)ethyl)-phenylsulfamic acid]
IC50 (HPTPβ): 28 nM
IC50 (PTP1B): 15500 nM

Compound: CCc1csc([C@H](Cc2ccc(NS(=O)(=O)O)cc2)NC(=O)Cc2ccc(F)c(F)c2)n1 [(S)-4-(2-(2-(3,4-Difluorophenyl)acetamido)-2-(4-ethylthiazol-2-yl)ethyl)phenyl-sulfamic acid]
IC50 (HPTPβ): 75 nM
IC50 (PTP1B): 23900 nM

Compound: CCc1csc([C@H](Cc2ccc(NS(=O)(=O)O)cc2)NC(=O)Cc2ccccc2Cl)n1 [(S)-4-(2-(2-(2-Chlorophenyl)acetamido)-2-(4-ethylthiazol-2-yl)ethyl)phenyl-sulfamic acid]
IC50 (HPTPβ): 56 nM
IC50 (PTP1B): 22800 nM

Compound: CCc1csc([C@H](Cc2ccc(NS(=O)(=O)O)cc2)NC(=O)CCc2ccc(OC)cc2)n1 [(S)-4-(2-(4-Ethylthiazol-2-yl)-2-(3-(4-methoxyphenyl)propanamido)ethyl)phenyl-sulfamic acid]
IC50 (HPTPβ): 6 nM
IC50 (PTP1B): 16000 nM

Compound: CCc1csc([C@H](Cc2ccc(NS(=O)(=O)O)cc2)NC(=O)CCc2cccc(OC)c2)n1 [(S)-4-(2-(4-Ethylthiazol-2-yl)-2-(3-(3-methoxyphenyl)propanamido)ethyl)phenyl-sulfamic acid]
IC50 (HPTPβ): 10 nM
IC50 (PTP1B): 20600 nM

Further lines, results first:

IC50 (HPTPβ): 2 nM
IC50 (PTP1B): 254 nM
Compound: CCc1csc([C@H](Cc2ccc(NS(=O)(=O)O)cc2)NC(=O)Cn2cc(C)c(=O)[nH]c2=O)n1 [(S)-4-{2-(4-Ethylthiazol-2-yl)-2-[2-(5-methyl-2,4-dioxo-3,4-dihydropyrimidin-1(2H)-yl)acetamido]ethyl}phenylsulfamic acid]

IC50 (HPTPβ): 2 nM
IC50 (PTP1B): 10400 nM
Compound: CCc1csc([C@H](Cc2ccc(NS(=O)(=O)O)cc2)NC(=O)CCc2ccccc2)n1 [(S)-4-(2-(4-Ethylthiazol-2-yl)-2-(3-phenylpropanamido)ethyl)phenylsulfamic acid]

IC50 (HPTPβ): 2 nM
IC50 (PTP1B): 530 nM
Compound: CCc1csc([C@H](Cc2ccc(NS(=O)(=O)O)cc2)NC(=O)CN2CCN(CC)C(=O)C2=O)n1 [(S)-4-{2-[2-(4-Ethyl-2,3-dioxopiperazin-1-yl)acetamido]-2-(4-ethylthiazol-2-yl)ethyl}phenylsulfamic acid]

IC50 (HPTPβ): 37 nM
IC50 (PTP1B): 25400 nM
Compound: CCc1csc([C@H](Cc2ccc(NS(=O)(=O)O)cc2)NC(=O)Cc2cccc(OC)c2OC)n1 [(S)-4-(2-(2-(2,3-Dimethoxyphenyl)acetamido)-2-(4-ethylthiazol-2-yl)ethyl)-phenylsulfamic acid]

IC50 (HPTPβ): 33 nM
IC50 (PTP1B): 13600 nM
Compound: CCc1csc([C@H](Cc2ccc(NS(=O)(=O)O)cc2)NC(=O)Cc2cccc(Cl)c2)n1 [(S)-4-(2-(2-(3-Chlorophenyl)acetamido)-2-(4-ethylthiazol-2-yl)ethyl)phenyl-sulfamic acid]

IC50 (HPTPβ): 40 nM
IC50 (PTP1B): 6570 nM
Compound: CCc1csc([C@H](Cc2ccc(NS(=O)(=O)O)cc2)NC(=O)Cc2cccc(O)c2)n1 [(S)-4-(2-(4-Ethylthiazol-2-yl)-2-(2-(3-hydroxyphenyl)acetamido)ethyl)phenyl-sulfamic acid]

IC50 (HPTPβ): 12 nM
IC50 (PTP1B): 5360 nM
Compound: CCc1csc([C@H](Cc2ccc(NS(=O)(=O)O)cc2)NC(=O)Cc2ccccc2F)n1 [(S)-4-(2-(4-Ethylthiazol-2-yl)-2-(2-(2-fluorophenyl)acetamido)ethyl)phenyl-sulfamic acid]

IC50 (HPTPβ): 0.2 nM
IC50 (PTP1B): 15300 nM
Compound: CCc1csc([C@H](Cc2ccc(NS(=O)(=O)O)cc2)NC(=O)CCc2cccc(Cl)c2)n1 [(S)-4-(2-(3-(3-Chlorophenyl)propanamido)-2-(4-ethylthiazol-2-yl)ethyl)phenyl-sulfamic acid]

IC50 (HPTPβ): 3 nM
IC50 (PTP1B): 16900 nM
Compound: CCc1csc([C@H](Cc2ccc(NS(=O)(=O)O)cc2)NC(=O)CCc2ccccc2OC)n1 [(S)-4-(2-(4-Ethylthiazol-2-yl)-2-(3-(2-methoxyphenyl)propanamido)ethyl)phenyl-sulfamic acid]

IC50 (HPTPβ): 28 nM
IC50 (PTP1B): 5360 nM
Compound: CCc1csc([C@H](Cc2ccc(NS(=O)(=O)O)cc2)NC(=O)Cc2cccc(F)c2F)n1 [(S)-4-(2-(2-(2,3-Difluorophenyl)acetamido)-2-(4-ethylthiazol-2-yl)ethyl)phenyl-sulfamic acid]

IC50 (HPTPβ): 8 nM
IC50 (PTP1B): 4050 nM
Compound: CCc1csc([C@H](Cc2ccc(NS(=O)(=O)O)cc2)NC(=O)Cc2cccc(OC)c2)n1 [(S)-4-(2-(4-Ethylthiazol-2-yl)-2-(2-(3-methoxyphenyl)acetamido)ethyl)phenyl-sulfamic acid]

IC50 (HPTPβ): 50 nM
IC50 (PTP1B): 22900 nM
Compound: CCc1csc([C@H](Cc2ccc(NS(=O)(=O)O)cc2)NC(=O)Cc2ccccc2)n1 [(S)-{4-[2-(4-Ethylthiazol-2-yl)-2-(phenylacetylamido)ethyl]-phenyl}sulfamic acid]
